Measurements reported in ChEMBL document CHEMBL5579804, “Synthesis and kinetic evaluation of phosphomimetic inhibitors targeting type B ribose-5-phosphate isomerase from Mycobacterium tuberculosis” (Bioorg Med Chem Lett, 2024).

Legend:
[1] = Selectivity ratio of Km/Ki for Mycobacterium tuberculosis RpiB to Km/Ki for Spinacia oleracea RpiA
[2] = biological target: T1, ribose-5-phosphate isomerase (Spinacia oleracea) (UniProt Q8RU73); assay: Competitive inhibition of Spinacia oleracea RPIA assessed as ratio of Km/Ki using D-ribose-5-phosphate as substrate by Cheng-Prusoff equation analysis
T1 sequence (whole entry): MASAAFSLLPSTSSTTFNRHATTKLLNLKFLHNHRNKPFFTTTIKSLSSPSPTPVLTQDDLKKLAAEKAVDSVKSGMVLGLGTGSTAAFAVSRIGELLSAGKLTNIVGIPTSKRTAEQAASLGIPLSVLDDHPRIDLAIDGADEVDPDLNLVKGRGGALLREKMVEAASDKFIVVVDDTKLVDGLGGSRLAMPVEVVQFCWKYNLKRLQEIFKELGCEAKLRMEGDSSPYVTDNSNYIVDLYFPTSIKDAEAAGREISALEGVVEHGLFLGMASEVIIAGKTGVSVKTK

[3] = biological target: T2, Ribose-5-phosphate isomerase B (Mycobacterium tuberculosis) (UniProt P9WKD7); assay: Competitive inhibition of Mycobacterium tuberculosis RPIB assessed as ratio of Km/Ki using D-ribose-5-phosphate as substrate by Cheng-Prusoff equation analysis
T2 sequence (whole entry): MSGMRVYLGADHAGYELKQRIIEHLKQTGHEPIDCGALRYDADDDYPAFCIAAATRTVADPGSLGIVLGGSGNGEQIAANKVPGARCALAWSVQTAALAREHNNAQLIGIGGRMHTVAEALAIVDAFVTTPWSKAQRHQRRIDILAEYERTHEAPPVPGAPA

[4] = biological target: T3, Ribose-5-phosphate isomerase B (Escherichia coli (strain K12)) (UniProt P37351); assay: Competitive inhibition of Escherichia coli RPIB assessed as ratio of Km/Ki using D-ribose-5-phosphate as substrate by Cheng-Prusoff equation analysis
T3 sequence (whole entry): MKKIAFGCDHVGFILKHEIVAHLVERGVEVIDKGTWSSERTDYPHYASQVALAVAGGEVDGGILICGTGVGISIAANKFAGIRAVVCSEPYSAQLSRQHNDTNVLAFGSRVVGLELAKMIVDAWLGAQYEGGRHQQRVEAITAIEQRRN

SMILES	Selectivity ratio [1]	Ratio [2]	Ratio [3]	Ratio [4]
O=C(O)[C@@H](O)[C@@H](O)[C@@H](O)COP(=O)(O)O (single isomer, unassigned)	3	79	233	–
CC(C(C(=O)O)C(=O)O)[C@@H](O)[C@@H](O)[C@@H](O)CCP(=O)(O)O (some centres not stated)	> 6.5	< 4	26	–
O=C(O)C(C[C@H]1OC(O)[C@H](O)[C@@H]1O)C(=O)O (some centres not stated)	0.8	7	6	2
O=S(=O)(O)CC[C@H]1OC(O)[C@H](O)[C@@H]1O (some centres not stated)	0.7	26	19	9
CC(C(C(=O)O)C(=O)O)[C@@H](O)[C@@H](O)[C@@H](O)CCC(=O)O (some centres not stated)	> 1.7	< 4	7	–
O=S(=O)(O)OC[C@H]1OC(O)[C@H](O)[C@@H]1O (some centres not stated)	3.1	17	53	18
O=C(O)[C@H](O)[C@H](O)[C@H](O)COP(=O)(O)O	4.5	–	–	–
